Our source for the CC50 values is patent publication US12448388B2, “PRMT5 inhibitors and uses thereof” (Gilead Sciences, Inc., priority 2023, dated 2025).

One may read the CC50 as the concentration giving 50% cytotoxicity.

Structures are written as SMILES. Where two headings read alike, the source gives them in different places.

This assay has as its system HCT116 MTAP-deleted cell lines. Description: Cell viability assay (CellTiter-Glo, 7 days), HCT116 MTAP-deleted. Format: cell-based. Conditions: Homo sapiens, HCT-116, HCT116 MTAP-deleted, class symbols, read-out: CC50. The essentials:
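Dose-response, PRMT5 inhibitors from DMSO serial dilution, pre-spotted; cells seeded onto compound plates. 7 d, 37 °C/5% CO2/90% RH. Readout: CTG luminescence → CC50.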
A general note: In ATP-based viability assays light output follows the ATP content of the culture.

Take `C[C@H]1C[C@@H](N(C)C(=O)c2cc3c(cc2F)nc(N)c2cncn23)c2ccc(C(F)(F)F)cc21` [Ff-654, 4-amino-7-fluoro-N-methyl-N-((1R,3S)-3-methyl-5-(trifluoromethyl)-2,3-dihydro-1H-inden-1-yl)imidazo[1,5-a]quinoxaline-8-carboxamide]: for the setting “cell viability assay”, the CC50 is < 100 nM. Still for that read-out and setting: in the case of `C#Cc1ccc2c(c1)OC[C@H]2N(C)C(=O)c1cc2c(cc1F)nc(N)c1cncn12` [Ff-506, (S)-4-amino-N-(6-ethynyl-2,3-dihydrobenzofuran-3-yl)-7-fluoro-N-methylimidazo[1,5-a]quinoxaline-8-carboxamide] it was < 100 nM. For the molecule `CN(C(=O)c1cc2c(cc1F)nc(N)c1cncn12)[C@@H]1COc2cc(C3CC34CCC4)ccc21` (stereo partly drawn) [Ff-476, 4-amino-7-fluoro-N-methyl-N-((3S)-6-(spiro[2.3]hexan-1-yl)-2,3-dihydrobenzofuran-3-yl)imidazo[1,5-a]quinoxaline-8-carboxamide], the CC50 (cell viability assay) lay in the range of 100 to 1000 nM. As for `Cn1cc(N(Cc2ccc(C(F)(F)F)cn2)C(=O)c2cc3c(cc2F)nc(N)c2cncn23)cn1` [Ff-46, 4-amino-7-fluoro-N-(1-methyl-1H-pyrazol-4-yl)-N-((5-(trifluoromethyl)pyridin-2-yl)methyl)imidazo[1,5-a]quinoxaline-8-carboxamide], the half-maximal cytotoxic concentration (CC50) (cell viability) is < 100 nM. For `Nc1nc2cc(F)c(C(=O)N3CCOC[C@@H]3c3ccc(C(F)(F)F)cn3)cc2n2cncc12` (single isomer, unassigned) [Ff-547], for the setting “cell viability assay”, the CC50 was < 100 nM. Consider `Cc1ncc2c(N)nc3cc(F)c(C(=O)N4CCOC[C@@H]4c4ccc(C(F)(F)F)cc4)cc3n12` [Ff-92, (S)-(4-amino-7-fluoro-1-methylimidazo[1,5-a]quinoxalin-8-yl)(3-(4-(trifluoromethyl)phenyl)morpholino)methanone], for which the cytotoxic concentration (CC50) (cell viability) was < 100 nM. `Nc1nc2cnc(C(=O)N3CCO[C@@H]4Cc5cc(C(F)(F)F)cc(F)c5[C@@H]43)cc2n2cncc12` [Ff-540, (4-aminoimidazo[1,5-a]pyrido[3,4-e]pyrazin-8-yl)((4aS,9aR)-5-fluoro-7-(trifluoromethyl)-2,3,9,9a-tetrahydroindeno[2,1-b][1,4]oxazin-4(4aH)-yl)methanone]: the CC50 (cell viability assay) was in the range of 100 to 1000 nM. On the same count and under the same terms, in the case of `Nc1nc2cc(F)c(C(=O)N3CC[C@H]4C[C@@H]3c3ccc(Cl)nc34)cc2n2cncc12` [Ff-595, (4-amino-7-fluoroimidazo[1,5-a]quinoxalin-8-yl)((5R,9S)-2-chloro-5,7,8,9-tetrahydro-6H-5,9-methanopyrido[3,2-c]azepin-6-yl)methanone] it was 100 to 1000 nM. For the molecule `C[C@H]1CN(C(=O)c2cc3c(cc2F)nc(N)c2cncn23)[C@H]2c3ccc(OC(F)(F)F)c(F)c3C[C@H]2O1` (single isomer, unassigned) [Ff-192], the CC50 (cell viability) is < 100 nM. In the case of `Nc1nc2cc(F)c(C(=O)N3CCC(F)(F)CC3c3ccc(C(F)(F)F)cn3)cc2n2cncc12` (stereo not shown) [Ff-223, (4-amino-7-fluoroimidazo[1,5-a]quinoxalin-8-yl)(4,4-difluoro-2-(5-(trifluoromethyl)pyridin-2-yl)piperidin-1-yl)methanone], under “cell viability”, the CC50 lay in the range of 100 to 1000 nM.

Regarding `CN(C(=O)c1cc2c(cc1F)nc(N)c1cncn12)[C@@H]1COc2cc(C3CC3(F)F)ccc21` (stereo partly drawn) [Ff-574, 4-amino-N-((3S)-6-(2,2-difluorocyclopropyl)-2,3-dihydrobenzofuran-3-yl)-7-fluoro-N-methylimidazo[1,5-a]quinoxaline-8-carboxamide], the cytotoxic concentration (CC50) (cell viability assay) was < 100 nM.

Consider `CN(C(=O)c1cc2c(cc1F)nc(N)c1cncn12)[C@@H]1COc2cc(C#CC3(F)COC3)ccc21` [Ff-440, 4-amino-7-fluoro-N-[(3S)-6-[2-(3-fluorooxetan-3-yl)ethynyl]-2,3-dihydrobenzofuran-3-yl]-N-methyl-imidazo[1,5-a]quinoxaline-8-carboxamide], for which the half-maximal cytotoxic concentration (CC50) (cell viability assay) is < 100 nM. Turning to `CN(C(=O)c1ccc2nc(N)c3cncn3c2c1)[C@@H]1COc2cc(F)ccc21` [Ff-569, (S)-4-amino-N-(6-fluoro-2,3-dihydrobenzofuran-3-yl)-N-methylimidazo[1,5-a]quinoxaline-8-carboxamide], the CC50 (cell viability assay) was 100 to 1000 nM. Regarding `C[C@@H]1CN(C(=O)c2cc3c(cc2F)nc(N)c2cncn23)[C@H]2c3cc(F)c(C(F)(F)F)cc3C[C@H]2O1` (single isomer, unassigned) [Ff-328], for the setting “cell viability”, the half-maximal cytotoxic concentration (CC50) was < 100 nM. `CN(C(=O)c1cc2c(cn1)nc(N)c1cncn12)[C@@H]1COc2cc(C34CC(C(F)(F)F)(C3)C4)ccc21` [Ff-642, (S)-4-amino-N-methyl-N-(6-(3-(trifluoromethyl)bicyclo[1.1.1]pentan-1-yl)-2,3-dihydrobenzofuran-3-yl)imidazo[1,5-a]pyrido[3,4-e]pyrazine-8-carboxamide]: under “cell viability assay”, the half-maximal cytotoxic concentration (CC50) was 100 to 1000 nM. Regarding `Nc1nc2cc(F)c(C(=O)N3CCO[C@@H]4Cc5nc(C(F)(F)F)ccc5[C@@H]43)cc2n2cncc12` (racemic) [Ff-88, Rac-(4-amino-7-fluoroimidazo[1,5-a]quinoxalin-8-yl)((4aR,9bS)-7-(trifluoromethyl)-2,3,5,9b-tetrahydropyrido[3′,2′:3,4]cyclopenta[1,2-b][1,4]oxazin-1(4aH)-yl)methanone], under “cell viability”, the CC50 lay within 100 to 1000 nM. Consider `Cc1ncn2c1c(N)nc1cc(F)c(C(=O)N3C[C@@H](C)O[C@@H]4Cc5cc(C(F)(F)F)ccc5[C@@H]43)cc12` [Fg-34, (4-amino-7-fluoro-3-methylimidazo[1,5-a]quinoxalin-8-yl)((2R,4aS,9aR)-2-methyl-7-(trifluoromethyl)-2,3,9,9a-tetrahydroindeno[2,1-b][1,4]oxazin-4(4aH)-yl)methanone], for which, for the setting “cell viability assay”, the cytotoxic concentration (CC50) was < 100 nM. With `C[C@@H]1CN(C(=O)c2ccc3nc(N)c4cncn4c3c2)[C@H]2c3ccc(C(F)(F)F)cc3C[C@H]2O1` [Ff-630, (4-aminoimidazo[1,5-a]quinoxalin-8-yl)((2R,4aS,9aR)-2-methyl-7-(trifluoromethyl)-2,3,9,9a-tetrahydroindeno[2,1-b][1,4]oxazin-4(4aH)-yl)methanone], the CC50 (cell viability assay) was < 100 nM.

For `COc1nn(C)cc1N(Cc1ccc(C(F)(F)F)cc1F)C(=O)c1cc2c(cc1F)nc(N)c1cncn12` [Ff-422, 4-amino-7-fluoro-N-[[2-fluoro-4-(trifluoromethyl)phenyl]methyl]-N-(3-methoxy-1-methyl-pyrazol-4-yl)imidazo[1,5-a]quinoxaline-8-carboxamide], for the setting “cell viability assay”, the CC50 was < 100 nM.

Consider `COC1(C#Cc2ccc3c(c2)OC[C@H]3N(C)C(=O)c2ccc3nc(N)c4cncn4c3c2)CCC1` [Ff-519, (S)-4-amino-N-(6-((1-methoxycyclobutyl)ethynyl)-2,3-dihydrobenzofuran-3-yl)-N-methylimidazo[1,5-a]quinoxaline-8-carboxamide], for which, where the note is “cell viability assay”, the CC50 is 100 to 1000 nM.

Turning to `C[C@H]1CN(C(=O)c2cc3c(cc2F)nc(N)c2cncn23)[C@H]2c3ccc(C(F)(F)F)c(F)c3C[C@H]2O1` [Ff-690, (4-amino-7-fluoroimidazo[1,5-a]quinoxalin-8-yl)((2S,4aS,9aR)-8-fluoro-2-methyl-7-(trifluoromethyl)-2,3,9,9a-tetrahydroindeno[2,1-b][1,4]oxazin-4(4aH)-yl)methanone], under “cell viability assay”, the CC50 is < 100 nM. Regarding `Nc1nc2cc(F)c(C(=O)N3CC(F)(F)CC[C@@H]3c3ccc(C(F)(F)F)cn3)cc2n2cncc12` (single isomer, unassigned) [Ff-242], for the setting “cell viability”, the CC50 was < 100 nM.
